Reference: publication PMC6912361, “Systemic Toxicity Reported for CDK8/19 Inhibitors CCT251921 and MSC2530818 Is Not Due to Target Inhibition” (Cells, 2019)
Like-named read-outs stand apart in the source and are kept apart here.

How the values were obtained:
[1] = system: STAT1 S727 phosphorylation; assay: Western blot of STAT1 S727 phosphorylation in 293-dKO cells; assay type: cell-based, human; settings: for Basal STAT1 S727 phosphorylation in dKO cells, effect of cytokines: 20 ng/mL EGF, 40 ng/mL TNFα, 1 h after 24 h serum starvation; for CDK8/19-independent STAT1 S727 phosphorylation in dKO 293 cells, effect of cytotoxic drugs: 3 h, 50 μM etoposide, 50 nM Taxol
Procedure: Cells were cultured in 60-mm dishes and treated under different conditions before being lysed in RIPA lysis buffer with protease/phosphatase inhibitor cocktail. The protein concentration of extracts was determined using the DC protein assay (Bio-Rad Laboratories). Protein samples (50 μg) were resolved on 4–12% Express-Plus PAGE gels in Tris-MOPS (SDS) running buffer (GenScript, Piscataway, NJ, USA), transferred to PVDF membranes and incubated at 4 °C overnight with primary antibodies STAT1 (sc-592, Santa Cruz Biotechnology, Dallas, TX, USA) and pSTAT1-Ser727 (#8826, Cell Signaling Technology, Danvers, MA, USA) followed by anti-rabbit (NA934, GE Healthcare, Chicago, IL, USA) secondary antibodies. Bands were visualized with Western Lighting Plus ECL detection reagent (Perkin Elmer, Waltham, MA, USA) using ChemiDoc Touch™ (Bio-Rad). Images were analyzed using ImageLab (Bio-Rad) and ImageJ (version 1.52p) software for protein signal quantification.

CDK8/19 [2] = assay: Cell-based QPCR assay of CDK8/19-dependent gene expression, HEK293 parental (WT) cells; design: species or system human
Procedure: All cells were cultured in DMEM (high-glucose) media supplemented with 10% fetal bovine serum (FBS) and Penicillin-Streptomycin-Glutamine (1×) at 37 °C with 5% CO2 and routinely confirmed to be free of mycoplasma.
(§3) Total RNA was extracted using RNAeasy Mini Kit (Qiagen, Germantown, MD, USA) and 1 µg of total RNA was used to generate cDNA using iScript cDNA synthesis kit (Bio-Rad Laboratories, Hercules, CA, USA). Gene expression was quantified using iTaq Universal SYBR green super mix using CFX384 Real-Time System (Bio-Rad).
The IC50 values for different inhibitors in inhibiting CDK8/19-dependent gene expression were calculated using a three-parameter least square (ordinary) fitting method with GraphPad Prism 7.0 (GraphPad Software, San Diego, CA, USA).
(§4) Cells were pre-treated with different concentrations of CDK8/19 inhibitors for 1 h and then 10 ng/mL TNFα, an inducer of transcription factor NFκB, which is potentiated by CDK8/19 [5], was added for 2 h before RNA extraction. QPCR was carried out to quantify CDK8/19-regulated expression of NFκB-inducible genes CXCL1 and CXCL8 and the basal expression of MYC.

CDK19 [3] = target: T1, CDK19 (Homo sapiens, UniProt Q9BWU1); assay: Cell-based QPCR assay of CDK8/19-dependent gene expression, HEK293 CDK8 single-knockout (8KO) cells; design: CDK8 single-knockout (8KO); endogenous in cells; host or cells: HEK293 CDK8 knockout (8KO); settings: HEK293 8KO, 1 h pre-treatment, then 10 ng/mL TNFα 2 h
Target sequence in this assay (Q9BWU1 whole entry): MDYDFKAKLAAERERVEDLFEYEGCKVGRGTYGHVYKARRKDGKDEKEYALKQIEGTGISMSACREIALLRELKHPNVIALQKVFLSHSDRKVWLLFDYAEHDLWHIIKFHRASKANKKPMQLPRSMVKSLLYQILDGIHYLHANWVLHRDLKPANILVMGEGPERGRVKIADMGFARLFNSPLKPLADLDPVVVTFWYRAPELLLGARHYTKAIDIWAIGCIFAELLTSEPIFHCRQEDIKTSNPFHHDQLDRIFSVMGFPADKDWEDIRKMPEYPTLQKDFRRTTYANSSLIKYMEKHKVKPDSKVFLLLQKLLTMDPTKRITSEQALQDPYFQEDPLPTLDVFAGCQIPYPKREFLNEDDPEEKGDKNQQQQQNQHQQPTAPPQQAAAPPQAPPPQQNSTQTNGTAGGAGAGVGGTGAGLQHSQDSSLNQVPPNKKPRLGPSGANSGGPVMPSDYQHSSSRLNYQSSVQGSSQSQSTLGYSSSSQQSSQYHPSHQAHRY
Target sequence in this assay (P24863 whole entry partner): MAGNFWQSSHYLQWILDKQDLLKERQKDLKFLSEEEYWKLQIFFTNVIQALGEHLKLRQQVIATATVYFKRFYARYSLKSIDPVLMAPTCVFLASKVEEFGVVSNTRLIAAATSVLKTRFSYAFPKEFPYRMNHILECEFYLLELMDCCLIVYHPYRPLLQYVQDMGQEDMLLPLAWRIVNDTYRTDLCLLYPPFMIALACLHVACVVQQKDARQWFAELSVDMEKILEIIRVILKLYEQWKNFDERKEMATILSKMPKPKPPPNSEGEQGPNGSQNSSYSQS
Procedure: (§5) CDK8/CDK19 single knockout and double knockout derivatives of human embryonic kidney (HEK) 293 cells (ATCC CRL-1573) were generated as previously described [18]. All cells were cultured in DMEM (high-glucose) media supplemented with 10% fetal bovine serum (FBS) and Penicillin-Streptomycin-Glutamine (1×) at 37 °C with 5% CO2 and routinely confirmed to be free of mycoplasma.
as §3
(§6) The IC50 values for different inhibitors in inhibiting CDK8/19-dependent gene expression were calculated using a three-parameter least square (ordinary) fitting method with GraphPad Prism 7.0 (GraphPad Software, San Diego, CA, USA). The Kruskal–Wallis non-parametric ANOVA was used to compare gene expression levels under no-inhibitor conditions between wild-type cells and knockout derivatives (8KO, 19KO and dKO) with GraphPad Prism 7.0.
as §4

CDK8 = CDK8 (Homo sapiens, UniProt P49336); assay: Cell-based QPCR assay of CDK8/19-dependent gene expression, HEK293 CDK19 single-knockout (19KO) cells; design: CDK19 single-knockout (19KO); endogenous in cells; host or cells: HEK293 CDK19 knockout (19KO); settings: HEK293 19KO, 1 h pre-treatment, then 10 ng/mL TNFα 2 h
Procedure: as §5, §3, §6, §4

STK16 = target: T2, STK16 (Homo sapiens, UniProt O75716); assay: KdELECT Kd determination, STK16; settings: 11-point 3-fold serial dilution, duplicate; read-out: Kd for the inhibition of nucleotide binding, STK16
T2 construct: purchased DiscoverX
Procedure: (§1) The screening platform employs an active site-directed competition binding assay to quantitatively measure interactions between test compounds and targeting kinases. […] To determine dissociation constants (Kds) of compounds on different targets, an 11-point 3-fold serial dilution of each test compound was tested in independent duplicate assays.
(§2) This assay has been previously used with many CDK8/19 inhibitors, including cortistatin A and its equipotent analog dCA [20, 21]; 15w.

dogs = settings: cited from earlier work
CDK19 [4] = target: T1, CDK19; assay: KdELECT Kd determination, CDK19; assay type: binding; design: purchased DiscoverX
Procedure: To determine dissociation constants (Kds) of compounds on different targets, an 11-point 3-fold serial dilution of each test compound was tested in independent duplicate assays.
Target sequence in this assay (Q9BWU1 whole entry): as the sequence (Q9BWU1 whole entry) above

[5] = system: non-dechorionated embryos of zebrafish TU strain; assay: Zebrafish toxicity assay, non-dechorionated embryos (TU strain); assay type: in vivo; settings: 2 μM; TU strain
Procedure: The toxicity studies in non-dechorionated embryos of zebrafish TU strain were approved by the Institutional Animal Care and Use Committee of the University of South Carolina. The studies were conducted in sterile 24-well plates with one 24 hpf embryo in each well in a 1 mL volume of egg water. For each plate, 6 wells were treated with vehicle control and the other 18 wells (i.e., biological replicates) were treated with different CDK8/19 inhibitors at different concentrations. […] All the data from the plates with at least five healthy vehicle-treated embryos on day 5 were compiled together for final data analysis.

[6] = design: method as in PMID 27935476; settings: colon cancer and leukemia mouse xenograft models; cited from earlier work
PIKFYVE [7] = target: T3, PIKFYVE (Homo sapiens, UniProt Q9Y2I7); assay: KdELECT Kd determination, PIKFYVE; design: purchased DiscoverX; settings: 11-point 3-fold serial dilution, duplicate; read-out: Kd for the inhibition of nucleotide binding, PIKFYVE
Procedure: as §1, §2

JNK1 (MAPK8) = target: T4, JNK1 (MAPK8) (Homo sapiens, UniProt P45983); assay: KdELECT Kd determination, JNK1; settings: 11-point 3-fold serial dilution, duplicate; read-out: Kd for the inhibition of nucleotide binding, JNK1 (MAPK8)
T4 construct: purchased DiscoverX
Procedure: as §1, §2

PIKFYVE [8] = target: T3, PIKFYVE; assay: Phase-contrast microscopy for intracellular large vesicular structures (PIKFYVE inhibition); assay type: cell-based; design: endogenous in cells; host or cells: HEK293-WT and HEK293-dKO; settings: 3 h; both WT and dKO 293 cells
Procedure: To evaluate PIKFYVE kinase inhibition, HEK293-WT and HEK293-dKO cells were treated with CDK8/19 inhibitors at different drug concentrations for 3 h. Phase-contrast microscopy was then used to detect the formation of intracellular large vesicular structures, associated with PIKFYVE inhibition.

rats = settings: cited from earlier work
[9] = design: method as in PMID 26796641; settings: mice, 30 mg/kg/d; cited from earlier work
CDK8/19 [10] = assay: Wash-off study: stability of inhibition of CDK8/19-dependent gene expression in 293 cells; assay type: cell-based, human; settings: 30 nM, 3 h, then drug-free media
Source text: We then asked if such toxicity could be associated with the stability of CDK8/19 inhibition. […] Then the drug-containing media were removed, cells were washed twice with PBS and cultured in fresh drug-free media for different periods of time before being lysed for RNA extraction and QPCR analysis of mRNA expression of MYC, JUN and ADAMTS1.

[11] = read-out: IC50, CXCL1 mRNA expression, WT; HEK293 WT; 1 h pre-treatment, then 10 ng/mL TNFα 2 h; QPCR
[12] = read-out: IC50, CXCL8 mRNA expression, WT; HEK293 WT; 1 h pre-treatment, then 10 ng/mL TNFα 2 h; QPCR
[13] = read-out: IC50, MYC mRNA expression, WT; HEK293 WT; 1 h pre-treatment, then 10 ng/mL TNFα 2 h; QPCR
[14] = IC50, CXCL1 mRNA expression, 8KO
[15] = IC50, CXCL8 mRNA expression, 8KO

CDK8, sequence (P49336 whole entry): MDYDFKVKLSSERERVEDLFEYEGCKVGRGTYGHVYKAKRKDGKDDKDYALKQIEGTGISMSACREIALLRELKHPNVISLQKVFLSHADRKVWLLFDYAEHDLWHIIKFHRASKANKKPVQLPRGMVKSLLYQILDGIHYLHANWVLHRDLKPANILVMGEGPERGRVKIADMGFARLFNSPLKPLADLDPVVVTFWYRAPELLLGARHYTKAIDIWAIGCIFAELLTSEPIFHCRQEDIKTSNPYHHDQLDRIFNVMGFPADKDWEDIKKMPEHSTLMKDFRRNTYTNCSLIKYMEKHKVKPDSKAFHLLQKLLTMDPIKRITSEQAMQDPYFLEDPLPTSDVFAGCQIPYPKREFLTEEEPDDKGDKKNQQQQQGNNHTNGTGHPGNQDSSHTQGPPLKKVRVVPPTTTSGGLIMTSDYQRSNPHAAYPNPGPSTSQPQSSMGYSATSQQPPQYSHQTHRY
CDK8, sequence (P24863 whole entry partner): as the sequence (P24863 whole entry partner) above
T3 sequence (Q9Y2I7 whole entry): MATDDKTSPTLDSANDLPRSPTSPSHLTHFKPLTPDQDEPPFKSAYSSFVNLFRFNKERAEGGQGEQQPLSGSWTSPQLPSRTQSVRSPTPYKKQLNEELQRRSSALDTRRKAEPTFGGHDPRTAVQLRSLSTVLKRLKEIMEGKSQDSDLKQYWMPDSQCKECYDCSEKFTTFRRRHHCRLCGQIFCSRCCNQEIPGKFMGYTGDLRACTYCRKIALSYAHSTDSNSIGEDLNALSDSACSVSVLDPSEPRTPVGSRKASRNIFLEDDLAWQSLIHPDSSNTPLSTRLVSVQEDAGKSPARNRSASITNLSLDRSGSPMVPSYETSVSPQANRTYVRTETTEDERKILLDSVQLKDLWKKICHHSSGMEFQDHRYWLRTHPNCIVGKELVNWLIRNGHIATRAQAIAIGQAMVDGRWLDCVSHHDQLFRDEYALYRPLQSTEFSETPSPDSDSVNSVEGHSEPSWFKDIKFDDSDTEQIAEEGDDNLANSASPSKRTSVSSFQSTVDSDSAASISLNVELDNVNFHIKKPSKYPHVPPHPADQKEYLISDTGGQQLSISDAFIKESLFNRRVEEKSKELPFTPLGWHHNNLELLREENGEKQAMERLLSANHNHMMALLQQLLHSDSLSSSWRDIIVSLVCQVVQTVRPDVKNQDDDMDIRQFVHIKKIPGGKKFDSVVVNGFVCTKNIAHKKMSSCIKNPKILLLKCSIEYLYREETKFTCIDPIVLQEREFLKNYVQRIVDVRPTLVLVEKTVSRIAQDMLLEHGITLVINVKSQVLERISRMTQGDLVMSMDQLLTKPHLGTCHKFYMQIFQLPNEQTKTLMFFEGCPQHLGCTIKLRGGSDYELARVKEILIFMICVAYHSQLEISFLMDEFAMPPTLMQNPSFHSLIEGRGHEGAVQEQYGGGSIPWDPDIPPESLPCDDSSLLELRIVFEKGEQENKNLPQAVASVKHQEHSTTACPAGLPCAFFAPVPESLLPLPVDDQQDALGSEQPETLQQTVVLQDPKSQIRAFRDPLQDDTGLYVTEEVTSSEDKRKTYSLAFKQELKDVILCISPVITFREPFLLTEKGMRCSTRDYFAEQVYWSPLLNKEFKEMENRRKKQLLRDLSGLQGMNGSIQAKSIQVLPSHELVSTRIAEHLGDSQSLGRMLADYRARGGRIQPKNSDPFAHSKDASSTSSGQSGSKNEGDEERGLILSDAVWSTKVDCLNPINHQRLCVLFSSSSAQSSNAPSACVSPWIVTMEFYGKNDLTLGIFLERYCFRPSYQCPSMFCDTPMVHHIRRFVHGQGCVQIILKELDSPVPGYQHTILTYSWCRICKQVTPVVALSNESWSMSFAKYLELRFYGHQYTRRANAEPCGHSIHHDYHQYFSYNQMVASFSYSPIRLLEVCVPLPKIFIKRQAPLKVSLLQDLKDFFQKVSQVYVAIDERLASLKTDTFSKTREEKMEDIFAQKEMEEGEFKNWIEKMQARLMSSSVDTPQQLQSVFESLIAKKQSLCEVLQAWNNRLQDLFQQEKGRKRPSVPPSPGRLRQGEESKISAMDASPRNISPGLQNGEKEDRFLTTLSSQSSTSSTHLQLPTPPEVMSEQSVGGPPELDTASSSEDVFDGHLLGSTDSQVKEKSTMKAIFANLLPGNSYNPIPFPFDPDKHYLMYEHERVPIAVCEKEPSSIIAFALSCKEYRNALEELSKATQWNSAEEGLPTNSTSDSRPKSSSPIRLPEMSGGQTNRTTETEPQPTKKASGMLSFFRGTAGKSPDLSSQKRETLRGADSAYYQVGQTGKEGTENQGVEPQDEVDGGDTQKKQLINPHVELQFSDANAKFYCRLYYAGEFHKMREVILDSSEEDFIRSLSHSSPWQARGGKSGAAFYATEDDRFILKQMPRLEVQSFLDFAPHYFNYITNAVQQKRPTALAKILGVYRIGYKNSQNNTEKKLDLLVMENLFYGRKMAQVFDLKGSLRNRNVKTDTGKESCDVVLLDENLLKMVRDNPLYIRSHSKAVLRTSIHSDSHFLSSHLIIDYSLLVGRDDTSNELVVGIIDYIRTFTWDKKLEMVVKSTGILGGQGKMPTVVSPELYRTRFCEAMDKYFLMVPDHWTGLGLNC
T2 sequence (O75716 whole entry): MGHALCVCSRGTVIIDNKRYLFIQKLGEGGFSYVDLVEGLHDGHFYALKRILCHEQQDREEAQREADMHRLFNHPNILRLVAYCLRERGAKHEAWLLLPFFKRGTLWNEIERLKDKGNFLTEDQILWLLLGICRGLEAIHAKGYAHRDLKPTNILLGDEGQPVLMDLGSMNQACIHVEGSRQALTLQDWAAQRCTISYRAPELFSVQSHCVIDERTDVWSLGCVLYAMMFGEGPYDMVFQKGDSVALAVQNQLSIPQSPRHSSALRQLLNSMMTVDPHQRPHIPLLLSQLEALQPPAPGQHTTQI
T4 sequence (P45983 whole entry): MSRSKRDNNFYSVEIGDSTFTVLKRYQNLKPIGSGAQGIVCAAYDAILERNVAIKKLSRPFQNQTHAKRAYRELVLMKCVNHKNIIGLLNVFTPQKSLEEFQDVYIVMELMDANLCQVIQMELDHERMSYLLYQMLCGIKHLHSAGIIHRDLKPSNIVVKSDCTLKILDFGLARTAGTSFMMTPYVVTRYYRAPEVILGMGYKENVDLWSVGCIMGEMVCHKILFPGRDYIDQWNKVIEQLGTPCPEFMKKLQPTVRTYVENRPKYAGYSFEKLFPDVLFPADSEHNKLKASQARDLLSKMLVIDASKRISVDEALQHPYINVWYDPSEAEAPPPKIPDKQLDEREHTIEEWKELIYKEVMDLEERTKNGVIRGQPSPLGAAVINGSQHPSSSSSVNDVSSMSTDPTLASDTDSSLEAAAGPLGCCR

## EGF: Recombinant human epidermal growth factor (NSDSECPLSHDGYCLHDGVCMYIEALDKYACNCVVGYIGERCQYRDLKWWELR; UniProt P01133 971-1023, looked up)
[1]
  Basal STAT1 S727 phosphorylation in dKO cells, effect of cytokines: increased

## CN(C)C(=O)Cc1ccc(N2CCCN(c3ccnc4sc(C(N)=O)c(N)c34)CC2)cc1 [15w]
CDK8/19 [2]; HEK293 WT; 1 h pre-treatment, then 10 ng/mL TNFα 2 h; QPCR; read-out: IC50, CXCL1 mRNA expression, WT
  IC50: 6.1 nM
CDK8/19 [2]; HEK293 WT; 1 h pre-treatment, then 10 ng/mL TNFα 2 h; QPCR; read-out: IC50, CXCL8 mRNA expression, WT
  IC50: 5.5 nM
CDK8/19 [2]; HEK293 WT; 1 h pre-treatment, then 10 ng/mL TNFα 2 h; QPCR; read-out: IC50, MYC mRNA expression, WT
  IC50: 4 nM
CDK19 [3]; read-out: IC50, CXCL1 mRNA expression, 8KO
  IC50: 5.4 nM
CDK19 [3]; read-out: IC50, CXCL8 mRNA expression, 8KO
  IC50: 5.4 nM
CDK19 [3]; read-out: IC50, MYC mRNA expression, 8KO
  IC50: 6.2 nM
CDK8; read-out: IC50, CXCL1 mRNA expression, 19KO
  IC50: 5.2 nM
CDK8; read-out: IC50, CXCL8 mRNA expression, 19KO
  IC50: 4.2 nM
CDK8; read-out: IC50, MYC mRNA expression, 19KO
  IC50: 2.5 nM

## COc1cc([C@@H]2c3cc4c(cc3[C@@H](O[C@@H]3O[C@@H]5CO[C@@H](C)O[C@H]5[C@H](O)[C@H]3O)[C@H]3COC(=O)[C@H]23)OCO4)cc(OC)c1O [etoposide]
[1]
  CDK8/19-independent STAT1 S727 phosphorylation in dKO 293 cells, effect of cytotoxic drugs: increased

## CC(=O)O[C@H]1C(=O)[C@@]2(C)[C@H]([C@H](OC(=O)c3ccccc3)[C@]3(O)C[C@H](OC(=O)[C@H](O)[C@@H](NC(=O)c4ccccc4)c4ccccc4)C(C)=C1C3(C)C)[C@]1(OC(C)=O)CO[C@@H]1C[C@@H]2O [Taxol]
[1]
  CDK8/19-independent STAT1 S727 phosphorylation in dKO 293 cells, effect of cytotoxic drugs: increased

## TNFα
[1]
  Basal STAT1 S727 phosphorylation in dKO cells, effect of cytokines: increased

## Cn1ncc2cc(-c3cnc(N)c(Cl)c3N3CCC4(CCNC4=O)CC3)ccc21 [Cmpd3]
STK16
  Kd: 420 nM
CDK8/19 [2]; [11]
  IC50: 3.2 nM
CDK8/19 [2]; [12]
  IC50: 3.3 nM
CDK8/19 [2]; [13]
  IC50: 4.1 nM
dogs
  Toxicity in dogs: multiple and striking toxicities, including lethality
CDK19 [3]; [14]
  IC50: 3.1 nM
CDK19 [3]; [15]
  IC50: 6.1 nM
CDK19 [3]; IC50, MYC mRNA expression, 8KO
  IC50: 0.9 nM
CDK19 [4]
  Kd: 59 nM
[5]
  Toxicity in zebrafish assays at higher concentrations: moderate but significant toxicity
[6]
  Weight loss in mice: detectable weight loss
PIKFYVE [7]
  Kd: 100 nM
JNK1 (MAPK8)
  Kd: 390 nM
PIKFYVE [8]
  Formation of large vesicular structures inside cells: caused the formation of large vesicular structures
rats
  Toxicity in rats: multiple and striking toxicities, including lethality
[9]
  Total plasma concentration after 1 h: 14.1 µM
  Total plasma concentration after 2 h: 6.9 µM
  Total plasma concentration after 6 h: 0.8 µM

## CN(C)C1CC23CCC4(O2)C(=CCC2(C)C(c5ccc6ccncc6c5)=CCC24)C=C3C(O)C1O (stereo not drawn) [dCA, 16-didehydro-cortistatin A]
CDK8/19 [10]
  Stability of CDK8/19 inhibition after wash-off (MYC, JUN, ADAMTS1 mRNA): by far the most stable
CDK8/19 [2]; [11]
  IC50: 1.3 nM
CDK8/19 [2]; [12]
  IC50: 1.4 nM
CDK8/19 [2]; [13]
  IC50: 1.5 nM
CDK19 [3]; [14]
  IC50: 1.1 nM
CDK19 [3]; [15]
  IC50: 0.8 nM
CDK19 [3]; IC50, MYC mRNA expression, 8KO
  IC50: 0.6 nM
CDK8; IC50, CXCL1 mRNA expression, 19KO
  IC50: 1.4 nM
CDK8; IC50, CXCL8 mRNA expression, 19KO
  IC50: 1 nM
CDK8; IC50, MYC mRNA expression, 19KO
  IC50: 0.5 nM
[5]
  Toxicity in zebrafish assays at higher concentrations: moderate but significant toxicity
